We go through 26 compounds from patent US8557849B2 (priority 2008, dated 2013).

The nature of the first data set: Measurement of logP values by HPLC on reversed phase columns (EEC directive 79/831 Annex V.A8). Particulars: method [a]: pH 2.3 with 0.1% phosphoric acid and acetonitrile as eluent. The class given is physicochemical. Here is the method:
Measurement of logP values was performed according EEC directive 79/831 Annex V.A8 by HPLC (High Performance Liquid Chromatography) on reversed phase columns with the following methods: • ^[a] Measurement was done at pH 2.3 with 0.1% phosphoric acid and acetonitrile as eluent. • ^[b] measurement of LC-MS was done at pH 2.7 with 0.1% formic acid in water and with acetonitrile (contains 0.1% formic acid) as eluent with a linear gradient from 10% acetonitrile to 95% acetonitrile. • ^[c] Measurement with LC-MS was done at pH 7.8 with 0.001 molar ammonium hydrogen carbonate solution in water as eluent with a linear gradient from 10% acetonitrile to 95% acetonitrile.
In the case of `CC(ON=C(c1ccccc1)c1nnnn1C)c1csc(C#CCCCc2ccccc2)n1` (stereo not shown) [Example 3], the log p is 5.08^[a]. For the compound `CC(ON=C(c1ccccc1)c1nnnn1C)c1csc(C#CCC2CCCC2)n1` (stereo not shown) [Example 4], the log p was 5.23^[a]. Take `CC(ON=C(c1ccccc1)c1nnnn1C)c1csc(C#CCC2CCCCC2)n1` (stereo not shown) [Example 5]: the log p is 5.65^[a]. For `CCCCC#Cc1nc(C(C)ON=C(c2ccccc2)c2nnnn2C)cs1` (stereo not shown) [Example 6], the log p was 4.73^[a]. Consider `Cn1nnnc1C(=NOCCc1csc(Br)n1)c1ccccc1` [Example 7], for which the log p is 3.25^[a]. Same read-out and setting: in the case of `Cn1nnnc1C(=NOCCc1csc(C#CC2CC2)n1)c1ccccc1` [Example 8] it was 3.69^[a]; in that of `CCCCC#Cc1nc(CCON=C(c2ccccc2)c2nnnn2C)cs1` [Example 9], 4.46^[a].

The same data set, now with this note: method [b]: LC-MS at pH 2.7 with 0.1% formic acid in water and acetonitrile, linear gradient 10% to 95% acetonitrile.
For `Cn1nnnc1C(=NOC(=O)c1ccccn1)c1ccccc1` [Example 10], the log p is 2.13^[b]. Same read-out and setting: in the case of `CC(ON=C(c1ccccc1)c1nnnn1C)c1ccccn1` (stereo not shown) [Example 11] it was 2.19^[b]. Still for that read-out and setting: next, `CC(ON=C(c1ccccc1)c1nnnn1C)c1cccc(N)n1` (stereo not shown) [Example 12]: 1.34^[b]; `CC(C)CC(=O)Nc1cccc(C(C)O/N=C(/c2ccccc2)c2nnnn2C)n1` (stereo not shown) [Example 13]: 3.53^[b]. In the case of `CCCCCC(=O)Nc1cccc(C(C)O/N=C(\c2ccccc2)c2nnnn2C)n1` (stereo not shown) [Example 14], the log p is 3.83^[b].

`CCCCCOC(=O)Nc1cccc(C(C)O/N=C(\c2ccccc2)c2nnnn2C)n1` (stereo not shown) [Example 15]: the log p was 4.41^[b].

`CCCCCC(=O)Nc1cccc(C(C)O/N=C(/c2ccccc2)c2nnnn2C)n1` (stereo not shown) [Example 17]: the log p is 3.96^[b]. On the same count and under the same terms, next, `CCCCCOC(=O)Nc1cccc(C(C)O/N=C(/c2ccccc2)c2nnnn2C)n1` (stereo not shown) [Example 18]: 4.54^[b].

The data set is the same for the next values; noted with them: reversed phase HPLC column, pH 2.7; HCOOH; given in preparation examples; read-out: logP(HCOOH).
`CC(O)c1csc(N)n1` (stereo not shown) [1-(2-amino-1,3-thiazol-4-yl)ethanol]: the chromatographic logP is -0.16. In the case of `CC(O)c1csc(Br)n1` (stereo not shown) [1-(2-bromo-1,3-thiazol-4-yl)ethanol], the chromatographic logP was found to be 1.1. Take `CC(Br)c1csc(Br)n1` (stereo not shown) [2-bromo-4-(1-bromoethyl)-1,3-thiazole]: the chromatographic logP came out at 2.61. The same measure, in the same setting: in the case of `CC(ON=C(c1ccccc1)c1nnnn1C)c1csc(Br)n1` (stereo not shown) [Example 1] it was 3.44; in that of `CC(ON=C(c1ccccc1)c1nnnn1C)c1csc(C#CC2CC2)n1` (stereo not shown) [Example 2, N-{1-[2-(cyclopropylethynyl)-1,3-thiazol-4-yl]ethoxy}-1-(1-methyl-1H-tetrazol-5-yl)-1-phenylmethanimine], 3.89. On to `CC(ON=C(c1ccccc1)c1nnnn1C)c1cccc(N)n1` (stereo not shown) [Example 16, 6-[1-({[(1-methyl-1H-tetrazol-5-yl)(phenyl)methylene]amino}oxy)ethyl]pyridin-2-amine], for which the chromatographic logP came to 1.21. Still for that read-out and setting: in the case of `CC(ON=C(c1ccccc1)c1nnnn1C)c1cccc(NC(=O)C(C)(C)C)n1` (stereo not shown) [Example 19, 2,2-dimethyl-N-{6-[1-({[(1-methyl-1H-tetrazol-5-yl)(phenyl)methylene]amino}oxy)ethyl]pyridin-2-yl}propanamide] it was 3.64; in that of `CC(ON=C(c1ccccc1)c1nnnn1C)c1cccc(NC(=O)OC(C)(C)C)n1` (stereo not shown) [Example 20, tert-butyl {6-[1-({[(1-methyl-1H-tetrazol-5-yl)(phenyl)methylene]amino}oxy)ethyl]pyridin-2-yl}carbamate], 4.09; in that of `CC(C)(C)C(=O)Nc1cccc(Br)n1` [N-(6-bromopyridin-2-yl)-2,2-dimethylpropanamide], 2.84.

With `CC(Br)c1cccc(NC(=O)C(C)(C)C)n1` (stereo not shown) [N-[6-(1-bromoethyl)pyridin-2-yl]-2,2-dimethylpropanamide], the chromatographic logP stood at 3.05. For the compound `CC(O)c1cccc(NC(=O)C(C)(C)C)n1` (stereo not shown) [N-[6-(1-hydroxyethyl)pyridin-2-yl]-2,2-dimethylpropanamide], the chromatographic logP is 1.08.

Still in this data set, the particulars now being: reversed phase HPLC column; method [a]: pH 2.3 with 0.1% phosphoric acid and acetonitrile as eluent; read-out: log p.
As to `CC(ON=C(c1ccccc1)c1nnnn1C)c1csc(Br)n1` (stereo not shown) [Example 1], the chromatographic logP was 3.44.

On to `CC(ON=C(c1ccccc1)c1nnnn1C)c1csc(C#CC2CC2)n1` (stereo not shown) [Example 2, N-{1-[2-(cyclopropylethynyl)-1,3-thiazol-4-yl]ethoxy}-1-(1-methyl-1H-tetrazol-5-yl)-1-phenylmethanimine], for which the chromatographic logP was 3.89.
